Results taken from patent US20230150986A1, “ANTAGONISTS OF THE MUSCARINIC ACETYLCHOLINE RECEPTOR M4” (Vanderbilt University, priority 2019, published 2023).

How the values were obtained:
cytochrome P450 1A2 = target: T1, cytochrome P450 1A2 (Homo sapiens, UniProt P05177); assay: Cytochrome P450 cocktail inhibition assay, 1A2 (phenacetin); format: in vitro ADME; details: human liver microsomes 0.1 mg/mL; read-out: CYP Inhibition (1A2)
T1 construct: human liver microsomes (HLM; 0.1 mg/mL); from tissue; host or cells: human liver microsomes
T1 sequence (P05177 1-516): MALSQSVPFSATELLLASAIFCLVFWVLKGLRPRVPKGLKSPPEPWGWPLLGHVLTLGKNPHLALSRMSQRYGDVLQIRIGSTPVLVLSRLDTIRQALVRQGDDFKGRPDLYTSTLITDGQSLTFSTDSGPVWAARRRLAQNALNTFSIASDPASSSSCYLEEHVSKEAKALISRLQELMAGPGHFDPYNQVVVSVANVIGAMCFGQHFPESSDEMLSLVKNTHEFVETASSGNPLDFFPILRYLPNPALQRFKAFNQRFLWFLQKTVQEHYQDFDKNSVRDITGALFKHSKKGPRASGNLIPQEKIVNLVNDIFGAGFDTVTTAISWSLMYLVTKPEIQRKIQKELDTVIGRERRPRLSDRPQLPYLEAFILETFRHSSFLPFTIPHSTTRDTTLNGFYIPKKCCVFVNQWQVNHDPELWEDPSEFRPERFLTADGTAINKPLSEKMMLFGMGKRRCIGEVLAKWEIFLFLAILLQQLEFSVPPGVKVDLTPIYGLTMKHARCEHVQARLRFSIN
Description: (§1) Solutions of substrates for cytochrome P450 enzymes (1A2: Phenacetin, 10 μM; 2C9: Diclofenac, 5 μM; 2D6: Dextromethorphan, 5 μM; 3A4: Midazolam, 2 μM; as a mixture), test compound (VU6028418; multiple concentrations), and the positive control for pan-P450 inhibition (miconazole; multiple concentrations) were prepared. A reaction mixture of assay buffer (100 mM Kpi at pH 7.4), human liver microsomes (HLM; 0.1 mg/mL), and the substrate mixture were aliquoted into a 96-deepwell plate. The test compound and control were then added to the plate such that the final concentration of test compound ranged from 0.1-30 μM (two replicates per concentration). The assay plate was vortexed (briefly) and pre-incubated at 37° C. in an orbital shaker for 15 minutes. The reaction was initiated by addition of NADPH (1 mM, final concentration) and continued for 8 min before it was quenched by acetonitrile (2× volume) containing an LCMS internal standard (carbamazepine, 50 nM). The plate was then centrifuged (4000 rcf, 4° C., 10 min), and the resulting supernatant was diluted with water (1× volume) for LC-MS/MS. Assay samples were analyzed via electrospray ionization on an AB Sciex API-4000 (Foster City, Calif.) triple-quadrupole mass spectrometer coupled to Agilent Technologies 1290 Infinity series pumps (Santa Clara, Calif.), and a Leap Technologies CTC PAL auto -sampler (Carrboro, NC). Analytes were separated by gradient elution on a Phenomenex Kinetex (C18 2.1×50 mm 5 μm) column (Torrance, Calif.) thermostated at 40° C. The HPLC mobile phase A was 0.1% formic acid in water (pH unadjusted), and the mobile phase B was 0.1% formic acid in acetonitrile (pH unadjusted). […] The total run time was 2.5 min and the HPLC flow rate was 0.5 mL/min. The source temperature was set at 500° C. and mass spectral analyses were performed using multiple reaction monitoring (MRM) with mass transitions specific to each substrate's metabolite utilizing a Turbo-Ionspray® source in positive ionization mode (5.0 kV spray voltage). The test compound and control IC50 values for each enzyme were obtained by quantitating the inhibition of metabolite formation for each substrate. A 0 μM test compound (or control) conditions represented 100% enzymatic activity, and the effect of increasing test compound concentrations on enzymatic activity was then calculated from the % of control activity. Inhibition curves were fitted using XLfit 5.2.2 (four-parameter logistic model, equation 201) in order to calculate the concentration that produced half-maximal inhibition (IC50) of each enzyme.

cytochrome P450 2C9 = target: T2, cytochrome P450 2C9 (Homo sapiens, UniProt P11712); assay: Cytochrome P450 cocktail inhibition assay, 2C9 (diclofenac); format: in vitro ADME; details: human liver microsomes 0.1 mg/mL; read-out: CYP Inhibition (2C9)
T2 construct: human liver microsomes (HLM; 0.1 mg/mL); from tissue; host or cells: human liver microsomes
Description: as §1

cytochrome P450 2D6 = target: T3, cytochrome P450 2D6 (Homo sapiens, UniProt P10635); assay: Cytochrome P450 cocktail inhibition assay, 2D6 (dextromethorphan); format: in vitro ADME; details: human liver microsomes 0.1 mg/mL; read-out: CYP Inhibition (2D6)
T3 construct: human liver microsomes (HLM; 0.1 mg/mL); from tissue; host or cells: human liver microsomes
Description: as §1

Sprague-Dawley rats = assay: Haloperidol-induced catalepsy assay; format: in vivo, rat; details: for reversal of catalepsy: haloperidol 1.5 mg/kg i.p.
Description: Drugs. Compound 1 was weighed and 2% Tween 80/0.5% methylcellulose were placed on top of the compound in serum bottles. This was sonicated for about an hour. All doses were administrated at 10 mL/kg p.o. The final solution is a suspension. Haloperidol was dissolved in 1 mL of 8% lactic acid and taken to 50 mL with sterile water. Haloperidol was dosed at 1 mL/kg i.p.
1. Haloperidol 1.5 mg/kg, i.p.
2. Compound 1, 0.3-3 mg/kg, p.o.
3. Vehicle (2% tween 80/0.5% MC), p.o.
Animals. Male Sprague-Dawley rats weighing between 290-326 grams (Envigo, Inc., Indianapolis, Ind.) were used. They were housed in the animal care facility certified by the American Association for the Accreditation of Laboratory Animal Care (AAALAC) under a 12-hour light/dark cycle (lights on: 7 a.m.; lights off: 7 p.m.) and had free access to food and water. The experimental protocols performed during the light cycle were approved by the Institutional Animals Care and Use Committee of Vanderbilt University and conformed to the guidelines established by the National Research Council Guide for the Care and Use of Laboratory Animals.
Haloperidol-induced catalepsy. Adult male Sprague-Dawley rats are injected with 1.5 mg/kg of haloperidol i.p. Thirty minutes later, the animals are administered 0.3-3 mg/kg of Compound 1 or vehicle. Cataleptic behavior is determined 60 minutes later by placing the forelimbs on a bar raised 6 cm above the table and recording the amount of time it takes for the rat to withdraw the forelimbs with a cutoff of 60 seconds. Data are expressed as mean latency to withdraw ±SEM or percent inhibition of catalepsy ±SEM.
Data Analysis. The data for these dose-response studies were analyzed by a one way analysis of variance. If there was a main effect of dose, then each dose group was compared with each of the other treated groups using GraphPad Prism (version 4.03, GraphPad, La Jolla, Calif.).

T2 sequence (P11712 whole entry): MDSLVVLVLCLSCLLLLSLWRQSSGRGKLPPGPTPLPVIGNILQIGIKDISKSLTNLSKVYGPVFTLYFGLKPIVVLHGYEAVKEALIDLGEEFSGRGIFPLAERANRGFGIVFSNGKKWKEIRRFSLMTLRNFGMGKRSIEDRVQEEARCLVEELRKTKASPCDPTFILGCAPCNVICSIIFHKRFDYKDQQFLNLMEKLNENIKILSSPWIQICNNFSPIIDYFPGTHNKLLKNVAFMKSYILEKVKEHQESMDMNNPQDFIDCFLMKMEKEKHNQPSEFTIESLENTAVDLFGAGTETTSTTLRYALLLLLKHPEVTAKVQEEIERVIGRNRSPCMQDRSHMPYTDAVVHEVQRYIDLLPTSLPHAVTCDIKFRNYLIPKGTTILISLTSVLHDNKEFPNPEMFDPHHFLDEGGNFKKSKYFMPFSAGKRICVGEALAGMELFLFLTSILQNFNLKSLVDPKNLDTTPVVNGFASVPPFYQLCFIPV
T3 sequence (P10635 whole entry): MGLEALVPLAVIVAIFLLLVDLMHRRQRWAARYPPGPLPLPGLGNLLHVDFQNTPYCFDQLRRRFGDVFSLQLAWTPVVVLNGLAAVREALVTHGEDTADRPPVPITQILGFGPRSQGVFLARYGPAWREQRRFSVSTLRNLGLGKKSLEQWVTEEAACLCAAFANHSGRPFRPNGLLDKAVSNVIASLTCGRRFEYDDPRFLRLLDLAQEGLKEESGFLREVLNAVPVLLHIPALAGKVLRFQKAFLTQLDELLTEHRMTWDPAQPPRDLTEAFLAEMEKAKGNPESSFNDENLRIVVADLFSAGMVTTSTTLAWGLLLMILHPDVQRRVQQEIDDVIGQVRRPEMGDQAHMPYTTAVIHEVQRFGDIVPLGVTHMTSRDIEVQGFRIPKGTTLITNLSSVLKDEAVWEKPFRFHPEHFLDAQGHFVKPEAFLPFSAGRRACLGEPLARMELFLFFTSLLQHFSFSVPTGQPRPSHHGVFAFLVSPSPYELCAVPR

Row | Structure (SMILES) | IC50 (cytochrome P450 1A2) | IC50 (cytochrome P450 2C9) | IC50 (cytochrome P450 2D6) | reversal of cataleptic behavior (Sprague-Dawley rats; 0.3 mg/kg) | reversal of catalepsy (Sprague-Dawley rats; 1 mg/kg p.o., rat, p<0.01) | reversal of catalepsy (Sprague-Dawley rats; 3 mg/kg p.o., rat, p<0.001) | latency to withdraw (forelimbs) compared to vehicle treated control animals (Sprague-Dawley rats; 0.3-3 mg/kg p.o., rat, F3,36=8.7 p<0.001)
1 | Fc1cc(F)c(F)c(-c2ccc(N[C@H]3C[C@@H]4CN(CC5CCOCC5)C[C@@H]4C3)nn2)c1 [Compound 1, (3aR,5s,6aS)-2-((tetrahydro-2H-pyran-4-yl)methyl)-N-(6-(2,3,5-trifluorophenyl)pyridazin-3-yl)octahydrocyclopenta[c]pyrrol-5-amine] | > 30 µM | 9.8 µM | > 30 µM | 26.2 0/0 | 50.9% | 65.2% | significantly reduced
2 | Fc1cc(F)c(F)c(-c2ccc(N[C@H]3C[C@@H]4CN(Cc5ccccn5)C[C@@H]4C3)nn2)c1 [Compound 2, (3aR,5s,6aS)-2-(pyridin-2-ylmethyl)-N-(6-(2,3,5-trifluorophenyl)pyridazin-3-yl)octahydrocyclopenta[c]pyrrol-5-amine] | 22.6 µM | > 30 µM | > 30 µM |  |  |  | 
